Reference: US9708357B2, “4′-azido, 3′-fluoro substituted nucleoside derivatives as inhibitors of HCV RNA replication” (Riboscience LLC, priority 2011, dated 2017)
pIC50: −log10 of the molar value.

Key:
in vitro = settings: human
[1] = tested on: HCV genotype 1b subgenomic replicon (2209-23 cells); assay: HCV Replicon assay (Renilla luciferase reporter); type: cell-based; settings: Hepatitis C virus, Huh-7, 72 h; genotype 1b replicon, 2209-23 Huh7 cells, three days incubation, Renilla luciferase readout

SMILES | CC50 (in vitro) [µM] | pIC50 [1]
CC(C)OC(=O)[C@H](C)NP(=O)(OC[C@@]1(N=[N+]=[N-])O[C@@H](n2ccc(=O)[nH]c2=O)[C@H](O)[C@@H]1F)Oc1ccccc1 (stereo partly drawn) [Compound I-1, (S)-2-{[(2R,3S,4S,5R)-2-Azido-5-(2,4-dioxo-3,4-dihydro-2H-pyrimidin-1-yl)-3-fluoro-4-hydroxy-tetrahydro-furan-2-ylmethoxy]-phenoxy-phosphorylamino}-propionic acid isopropyl ester] | > 100 | < 4.00
CCOC(=O)[C@H](C)NP(=O)(OC[C@@]1(N=[N+]=[N-])O[C@@H](n2ccc(=O)[nH]c2=O)[C@H](O)[C@@H]1F)Oc1ccccc1 (stereo partly drawn) [Compound I-2, (S)-2-{[(2R,3S,4S,5R)-2-Azido-5-(2,4-dioxo-3,4-dihydro-2H-pyrimidin-1-yl)-3-fluoro-4-hydroxy-tetrahydro-furan-2-ylmethoxy]-phenoxy-phosphorylamino}-propionic acid ethyl ester] | > 100 | 4.40
CCOC(=O)[C@H](C)NP(=O)(OC[C@@]1(N=[N+]=[N-])O[C@@H](n2ccc(=O)[nH]c2=O)[C@H](O)[C@@H]1F)Oc1cccc2ccccc12 (stereo partly drawn) [Compound I-3, (S)-2-[[(2R,3S,4S,5R)-2-Azido-5-(2,4-dioxo-3,4-dihydro-2H-pyrimidin-1-yl)-3-fluoro-4-hydroxy-tetrahydro-furan-2-ylmethoxy]-(naphthalen-1-yloxy)-phosphorylamino]-propionic acid ethyl ester] | > 100 | 4.10
CC(C)OC(=O)[C@H](C)NP(=O)(OC[C@@]1(N=[N+]=[N-])O[C@@H](n2ccc(N)nc2=O)[C@H](O)[C@@H]1F)Oc1cccc2ccccc12 (stereo partly drawn) [Compound I-4, (S)-2-[[(2R,3S,4S,5R)-5-(4-Amino-2-oxo-2H-pyrimidin-1-yl)-2-azido-3-fluoro-4-hydroxy-tetrahydro-furan-2-ylmethoxy]-(naphthalen-1-yloxy)-phosphorylamino]-propionic acid isopropyl ester] | > 100 | < 4.00
C[C@H](NP(=O)(OC[C@@]1(N=[N+]=[N-])O[C@@H](n2ccc(N)nc2=O)[C@H](O)[C@@H]1F)Oc1cccc2ccccc12)C(=O)OCc1ccccc1 (stereo partly drawn) [Compound I-5, (S)-2-[[(2R,3S,4S,5R)-5-(4-Amino-2-oxo-2H-pyrimidin-1-yl)-2-azido-3-fluoro-4-hydroxy-tetrahydro-furan-2-ylmethoxy]-(naphthalen-1-yloxy)-phosphorylamino]-propionic acid benzyl ester] | 91.2 | 5.81
CCOC(=O)[C@H](C)NP(=O)(OC[C@@]1(N=[N+]=[N-])O[C@@H](n2ccc(N)nc2=O)[C@H](O)[C@@H]1F)Oc1cccc2ccccc12 (stereo partly drawn) [Compound I-6, (S)-2-[[(2R,3S,4S,5R)-5-(4-Amino-2-oxo-2H-pyrimidin-1-yl)-2-azido-3-fluoro-4-hydroxy-tetrahydro-furan-2-ylmethoxy]-(naphthalen-1-yloxy)-phosphorylamino]-propionic acid ethyl ester] | > 100 | 4.49
CC(C)OC(=O)[C@H](C)NP(=O)(OC[C@@]1(N=[N+]=[N-])O[C@@H](n2ccc(N)nc2=O)[C@H](O)[C@@H]1F)Oc1ccccc1 (stereo partly drawn) [Compound I-7, (S)-2-{[(2R,3S,4S,5R)-5-(4-Amino-2-oxo-2H-pyrimidin-1-yl)-2-azido-3-fluoro-4-hydroxy-tetrahydro-furan-2-ylmethoxy]-phenoxy-phosphorylamino}-propionic acid isopropyl ester] | > 100 | 4.25
CC(C)OC(=O)[C@H](C)NP(=O)(O)OC[C@@]1(N=[N+]=[N-])O[C@@H](n2ccc(N)nc2=O)[C@H](O)[C@@H]1F [Compound I-8, (S)-2-{[(2R,3S,4S,5R)-5-(4-Amino-2-oxo-2H-pyrimidin-1-yl)-2-azido-3-fluoro-4-hydroxy-tetrahydro-furan-2-ylmethoxy]-hydroxy-phosphorylamino}-propionic acid isopropyl ester] | > 100 | < 4.00
CCC(=O)O[C@H]1[C@H](n2ccc(N)nc2=O)O[C@@](COP(=O)(N[C@@H](C)C(=O)OC(C)C)Oc2cccc3ccccc23)(N=[N+]=[N-])[C@H]1F (stereo partly drawn) [Compound I-9, (S)-2-[[(2R,3S,4S,5R)-5-(4-Amino-2-oxo-2H-pyrimidin-1-yl)-2-azido-3-fluoro-4-propionyloxy-tetrahydro-furan-2-ylmethoxy]-(naphthalen-1-yloxy)-phosphorylamino]-propionic acid isopropyl ester] | 58 | 4.57
